Results taken from US9617276B2, “Compounds and methods for treating AIDS and HIV infections” (priority 2009, dated 2017).

Columns and labels:
[1] = test system: multidrug-resistant clinical HIV-1 isolates (HIV-1MDR); assay: microbe, parasite or virus in culture; type: cell-based; conditions: Human immunodeficiency virus 1, read-out: greatest EC50 value against the clinical isolates
Experimental: (§1) The susceptibility of HIV-1LAI and primary HIV-1 isolates to various drugs were determined as described previously (Koh et al. 2003 Antimicrob Agents Chemother 47:3123-9). Briefly, MT-2 cells (2×10^4/ml) were exposed to 100 50% tissue culture infectious doses (TCID50S) of HIV-1LAI, in the presence or absence of various concentrations of drugs in 96-well microculture plates and were incubated at 37° C. for 7 days. After 100 μl of the medium was removed from each well, 3-(4,5-dimetylthiazol-2-yl)-2,5-diphenyltetrazolium bromide (MTT) solution (10 μl, 7.5 mg/ml in phosphate-buffered saline) was added to each well in the plate, followed by incubation at 37° C. for 3 h. […] All assays were performed in duplicate or triplicate. To determine the susceptibility of primary HIV-1 isolates to drugs, phytohemagglutinin-activated peripheral blood mononuclear cells (PHA-PBMCs; 106/ml) were exposed to 50 TCID50S of each. The target cells were exposed to HIV-1104pre or drug-resistant HIV-1 in the presence or absence of various concentrations of drugs and were incubated for 7 days. Upon the conclusion of the culture, the amounts of p24 Gag protein in the supernatants were determined using a fully automated chemiluminescent enzyme immunoassay system (Lumipulse F; Fujirebio Inc., Tokyo, Japan) (Maeda et al. 2001 J Biol Chem 276:35194-200). To determine the drug susceptibility of certain laboratory HIV-1 strains, MT-4 cells were used as target cells. In brief, MT-4 cells (10^5/ml) were exposed to 100 TCID50S of drug-resistant HIV-1 strains in the presence or absence of various concentrations of drugs and on day 7 of culture, the supernatant was harvested and the amounts of p24 Gag protein were determined. […] All assays were performed in duplicate or triplicate.
These clinical strains contained 9 to 14 amino acid substitutions in the protease-encoding region, which have reportedly been associated with HIV-1 resistance to various PIs.
Amino acid substitutions identified in the protease-encoding region compared to the consensus type B sequence cited from the Los Alamos database include L63P in HIV-1ERS104pre; L10I, K14R, L33I, M36I, M46I, F53I, K55R, I62V, L63P, A71V, G73S, V82A, L90M, and I93L in HIV-1MDR/B; L10I, I15V, K20R, L24I, M36I, M46L, I54V, I62V, L63P, K70Q, V82A, and L89M in HIV-1MDR/C; L10I, V11I, T12E, I15V, L19I, R41K, M46L, L63P, A71T, V82A, and L90M in HIV-1MDR/G; L10I, K14R, R41K, M46L, I54V, L63P, A71V, V82A, L90M, I93L in HIV-1MDR/TM; L10I, K43T, M46L, I54V, L63P, A71V, V82A, L90M, and Q92K in HIV-1MDR/MM; L10I, L24I, I33F, E35D, M36I, N37S, M46L, I54V, R57K, I62V, L63P, A71V, G73S, and V82A in HIV-1MDR/JSL. HIV-1ERS104pre served as a source of wild-type HIV-1. EC50s were determined by using PHA-PBMs as target cells, and inhibition of p24 Gag protein production by each drug was used as an end point. Numbers in parentheses represent n-fold changes of EC50s for each isolate compared to EC50s for wild-type HIV-1ERS104pre.

HIV-1396-1μM = assay: microbe, parasite or virus in culture; type: cell-based, HIV-1; conditions: Human immunodeficiency virus 1, MT4, read-out: EC50 (μM), HIV-1396-1 μM
Experimental: (§2) Briefly, MT-2 cells (2×10^4/ml) were exposed to 100 50% tissue culture infectious doses (TCID50S) of HIV-1LAI, in the presence or absence of various concentrations of drugs in 96-well microculture plates and were incubated at 37° C. for 7 days. After 100 μl of the medium was removed from each well, 3-(4,5-dimetylthiazol-2-yl)-2,5-diphenyltetrazolium bromide (MTT) solution (10 μl, 7.5 mg/ml in phosphate-buffered saline) was added to each well in the plate, followed by incubation at 37° C. for 3 h. […] All assays were performed in duplicate or triplicate. […] To determine the drug susceptibility of certain laboratory HIV-1 strains, MT-4 cells were used as target cells. In brief, MT-4 cells (10^5/ml) were exposed to 100 TCID50S of drug-resistant HIV-1 strains in the presence or absence of various concentrations of drugs and on day 7 of culture, the supernatant was harvested and the amounts of p24 Gag protein were determined. […] All assays were performed in duplicate or triplicate.
(§3) Numbers in parentheses represent n-fold changes in EC50s for each isolate compared to the EC50s for wild-type HIV-1NL4-3.

HIV-1246-1μM = assay: microbe, parasite or virus in culture; type: cell-based, HIV-1; conditions: Human immunodeficiency virus 1, MT4, read-out: EC50 (μM), HIV-1246-1 μM
Experimental: as §2, §3

HIV-2EHO = assay: drug susceptibility, MT-2 cells, MTT assay, HIV-2EHO; type: cell-based; conditions: Human immunodeficiency virus 2, MT2, read-out: EC50 (μM) for HIV-2EHO
Experimental: (§4) All assays were performed in duplicate or triplicate. […] All assays were performed in duplicate or triplicate.
(§5) Each selectivity index denotes a ratio of CC50 to EC50 against HIV-1LAI N.D., not done.

HIV-2ROD = assay: drug susceptibility, MT-2 cells, MTT assay, HIV-2ROD; type: cell-based; conditions: Human immunodeficiency virus 2, MT2, read-out: EC50 (μM) for HIV-2ROD
Experimental: as §4, §5

HIV-1LPV5μM = assay: microbe, parasite or virus in culture; type: cell-based; conditions: Human immunodeficiency virus 1, MT4, read-out: EC50 (μM), HIV-1LPV5 μM
Experimental: as §1, §3

HIV-1APV5μM = assay: microbe, parasite or virus in culture; type: cell-based; conditions: Human immunodeficiency virus 1, MT4, read-out: EC50 (μM), HIV-1APV5 μM
Experimental: as §1, §3

HIV-1 = conditions: prior inhibitors; read-out: ID50 (the source's name); cited from earlier work
HIV-1216-P50 = assay: microbe, parasite or virus in culture; type: cell-based, HIV-1; conditions: Human immunodeficiency virus 1, MT4, read-out: EC50 (μM), HIV-1216-p50
Experimental: as §2, §3

HIV-1NL4-3 = assay: p24 Gag inhibition in MT-4 cells, HIV-1NL4-3; type: cell-based; conditions: Human immunodeficiency virus 1, MT4, Table 9, mean ± 1 SD, read-out: EC50 (μM), HIV-1NL4-3
Experimental: as §4

HIV-1AZV5μM = assay: microbe, parasite or virus in culture; type: cell-based; conditions: Human immunodeficiency virus 1, MT4, read-out: EC50 (μM), HIV-1AZV5 μM
Experimental: as §1, §3

HIV-1SQV5μM = assay: microbe, parasite or virus in culture; type: cell-based; conditions: Human immunodeficiency virus 1, MT4, read-out: EC50 (μM), HIV-1SQV5 μM
Experimental: as §1, §3

HIV-1NFV5μM = assay: microbe, parasite or virus in culture; type: cell-based; conditions: Human immunodeficiency virus 1, MT4, read-out: EC50 (μM), HIV-1NPV5 μM
Experimental: as §1, §3

| Compound | EC50 [1] | EC50 (HIV-1396-1μM) | EC50 (HIV-1246-1μM) | EC50 (HIV-2EHO) | EC50 (HIV-2ROD) | EC50 (HIV-1LPV5μM) | EC50 (HIV-1APV5μM) | IC50 (HIV-1) | EC50 (HIV-1216-P50) | EC50 (HIV-1NL4-3) | EC50 (HIV-1AZV5μM) | EC50 (HIV-1SQV5μM) | EC50 (HIV-1NFV5μM) |
| --- | --- | --- | --- | --- | --- | --- | --- | --- | --- | --- | --- | --- | --- |
| CC(C)CN(C[C@@H](O)[C@H](Cc1ccccc1)NC(=O)O[C@H]1CO[C@H]2OCC[C@H]21)S(=O)(=O)c1ccc(N)cc1 [DRV, Darunavir] | 27 nM | 0.016 ± 0.001 µM | 0.029 ± 0.001 µM | 0.008 ± 0.007 µM | 0.01 ± 0.004 µM | 0.025 ± 0.0066 µM | 0.29 ± 0.0018 µM |  |  |  |  |  |  |
| COc1ccc(S(=O)(=O)N(CC(C)C)CC(O)C(Cc2ccccc2)NC(=O)OC2COC3OCCC23)cc1 (centres unmarked) [Compound 2, TMC-126] |  |  |  |  |  |  |  | 1.2 nM |  |  |  |  |  |
| Cc1c(O)cccc1C(=O)N[C@@H](CSc1ccccc1)[C@H](O)CN1C[C@H]2CCCC[C@H]2C[C@H]1C(=O)NC(C)(C)C [NFV, Nelfinavir] |  | 0.22 ± 0.02 µM | 0.29 ± 0.006 µM |  |  | 0.32 ± 0.12 µM | 0.3 ± 0.03 µM |  | 0.13 ± 0.04 µM | 0.04 ± 0.007 µM | > 1 µM | 0.51 ± 0.081 µM | > 1 µM |
